pIC50, pKd: −log10 of the molar value.
Assays:
LDHA [1] = target: T1, LDHA (Homo sapiens (Human), UniProt P00338); experiment: Isothermal titration calorimetry (ITC); assay type: binding; details: 25° C., NADH 1 mM
Protocol: ITC experiments were performed using a MicorCal PEAQ ITC instrument. Prior to the experiments, LDHA was dialyzed against 50 mM potassium phosphate buffer pH 7.4, 150 mM NaCl, 0.002% pluronic acid F-127 at 4° C. overnight using mini dialysis kits from GE Healthcare. The tested compounds were dissolved to 100 mM in DMSO. After dialysis, the protein was centrifuged at 14,000 rpm at 4° C. for 30 min. Buffer and MilliQ water for the reference cell were degassed prior to use. Protein concentration was determined by A280 nm measurements using a Nanodrop. All ITC experiments were conducted at 25° C. with stirring at 750 rpm. In a typical experiment the compound of interest was loaded into the sample cell at 20 μM and LDHA (200 μM in syringe) was titrated to the compound solution in consecutive injections. NADH (1 mM) and DMSO concentrations (2%) were matched in all solutions. Data were analyzed using the MicroCal PEAQ-ITC analysis software and fitted to a single site binding model, resulting in binding constant Kd, enthalpy ΔH, entropy ΔS and the stoichiometry N.

LDHA [2] = target: T1, LDHA; experiment: Coupled diaphorase assay, LDHA; assay type: biochemical; details: lactate to pyruvate direction, 4-7 nM LDHA
Text: (§1) The inhibitory properties of the compounds were investigated using a coupled enzyme assay that links the lactate dehydrogenase (LDH) reaction to the production of fluorescent resorutin by diaphorase.
(§2) Human lactate dehydrogenases (LDH) catalyze the reversible interconversion between pyruvate and lactate. LDH is capable of catalyzing both the forward (pyruvate to lactate) and the reverse (lactate to pyruvate) reaction, using either NADH or NAD^+ as a cofactor. The reaction proceeds in either direction dependent on various factors, such as substrate availability, the presence of necessary cofactors, temperature and pH. Different isoforms (LDH A, B, and C) of the enzyme favor different reaction directions—LDHA prefers the conversion from pyruvate to lactate, whereas LDHB preferentially oxidizes lactate to pyruvate.
The coupled assay relies on the oxidation of NAD^+ to NADH throughout the conversion of lactate to pyruvate by LDH (isoforms A, B and C). The produced NADH serves as cofactor in the diaphorase reaction, which reduces non-fluorescent resazurin to fluorescent resorufin. Therefore, the assay indirectly monitors the rate of pyruvate production. Although the consumption of NADH can be directly monitored due to the intrinsic fluorescence of the molecule (excitation: 340 nm, emission: 460 nm) there are problems linked to the direct readout method. […] Shifting the assay to longer wavelengths by coupling the LDH reaction to the conversion of resazurin to fluorescent resorufin by diaphorase reduces this compound interference. The assay direction was thus chosen to provide a robust and reliable assay. […]
Compounds were tested in duplicates using 2-fold, 3-fold or 4-fold serial dilutions including 11 individual concentrations, starting from 5000 μM to 30 μM. […] The controls allowed for the calculation of the percentage inhibition for each data point. […] Enzyme solution leading to final concentrations of 4-7 nM LDHA or 6 nM LDHB, as well as 0.2 U/ml diaphorase in the reaction well was dispensed into 384-well plates (Greiner bio-one) using a CyBi®-SELMA robotic pipettor. Compound dilutions and the enzyme were incubated for at least 20 min at room temperature. […] The reaction was quenched by the addition of a stop solution (final concentrations: 20 mM EDTA, 400 mM NaCl, 40 mM pyruvate). Fluorescence was read out after 5 min of incubation at an excitation wavelength of 560 nm and an emission wavelength of 590 nm on a Perkin Elmer Victor X plate reader. […]
(§3) Fluorescence data was normalized to DMSO and inhibition controls resulting in percentage inhibition for every compound concentration. Dose response curves were fitted in KaleidaGraph (www.synergy.com) or Dotmatics software package (www.dotmatics.com) using a standard 4-parameter fit (Levenberg-Marquardt fitting procedure), resulting in IC50 values for the test compounds.

LDHB = LDHB (Homo sapiens (Human), UniProt P07195); experiment: Coupled diaphorase assay, LDHB; assay type: biochemical; details: lactate to pyruvate direction, 6 nM LDHB
Text: as §1, §2
The coupled assay relies on the oxidation of NAD^+ to NADH throughout the conversion of lactate to pyruvate by LDH (isoforms A, B and C). The produced NADH serves as cofactor in the diaphorase reaction, which reduces non-fluorescent resazurin to fluorescent resorufin. Therefore, the assay indirectly monitors the rate of pyruvate production. Although the consumption of NADH can be directly monitored due to the intrinsic fluorescence of the molecule (excitation: 340 nm, emission: 460 nm) there are problems linked to the direct readout method. […] Shifting the assay to longer wavelengths by coupling the LDH reaction to the conversion of resazurin to fluorescent resorufin by diaphorase reduces this compound interference. The assay direction was thus chosen to provide a robust and reliable assay.
Applying the LDHA reaction in the preferred direction for the conversion of pyruvate to lactate under oxidation of NADH to NAD^+ would necessitate running the LDHA reaction to about 80% completion and adding the diaphorase assay reagents afterwards in order to avoid enzyme competition for NADH.
The controls allowed for the calculation of the percentage inhibition for each data point. […] Enzyme solution leading to final concentrations of 4-7 nM LDHA or 6 nM LDHB, as well as 0.2 U/ml diaphorase in the reaction well was dispensed into 384-well plates (Greiner bio-one) using a CyBi®-SELMA robotic pipettor. Compound dilutions and the enzyme were incubated for at least 20 min at room temperature. […] The reaction was quenched by the addition of a stop solution (final concentrations: 20 mM EDTA, 400 mM NaCl, 40 mM pyruvate). Fluorescence was read out after 5 min of incubation at an excitation wavelength of 560 nm and an emission wavelength of 590 nm on a Perkin Elmer Victor X plate reader. […]
as §3

[3] = test system: MIA PaCa-2 human pancreatic cells; details: MIA PaCa-2 cells; cited from earlier work
LDH = details: in vitro; cited from earlier work

Sequence of LDHB (P07195 whole entry): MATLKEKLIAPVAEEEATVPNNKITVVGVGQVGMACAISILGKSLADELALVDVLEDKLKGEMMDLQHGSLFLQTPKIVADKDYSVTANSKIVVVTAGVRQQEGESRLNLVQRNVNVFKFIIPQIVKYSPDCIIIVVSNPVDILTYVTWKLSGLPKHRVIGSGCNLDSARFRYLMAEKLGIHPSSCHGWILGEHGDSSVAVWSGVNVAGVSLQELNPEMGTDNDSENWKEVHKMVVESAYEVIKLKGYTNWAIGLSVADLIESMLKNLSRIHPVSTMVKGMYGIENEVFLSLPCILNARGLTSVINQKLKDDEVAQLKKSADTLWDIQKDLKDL

Row | pIC50 (LDHA [2]) | pIC50 (LDHB) | SMILES | other results
1 | 6.30 to 7.00 | – | O=C1CC(c2ccc(N3CCOCC3)cc2)(c2ccsc2)NC(=O)C1Sc1cc(Cl)ccc1Cl (racemic) [Example 10, 3-((2,5-dichlorophenyl)thio)-6-(4-morpholinophenyl)-6-(thiophen-3-yl)piperidine-2,4-dione] | -TΔS (LDHA [1]): 0.944 kcal/mol; pKd (LDHA [1]): 7.36; N (stoichiometry) (LDHA [1]): 0.796; ΔH (LDHA [1]): -11 kcal/mol
2 | 5.00 to 6.30 | < 4.00 | O=C1CC(c2ccsc2)(c2cccc(OCC3CCCC3)n2)NC(=O)C1Sc1ccc(F)cc1Cl (centres unmarked) [Example 3, 3-[(2-chloro-4-fluorophenyl)sulfanyl]-6-[6-(cyclopentylmethoxy)pyridin-2-yl]-6-(thiophen-3-yl)piperidine-2,4-dione] | -TΔS (LDHA [1]): 5.11 kcal/mol; pKd (LDHA [1]): 6.43; N (stoichiometry) (LDHA [1]): 0.721; ΔH (LDHA [1]): -3.68 kcal/mol
3 | 6.30 to 7.00 | – | O=C1CC(c2ccsc2)(c2cccc(OCC3CCCC3)n2)NC(=O)C1Sc1cc(Cl)ccc1Cl (centres unmarked) [Example 5, 6-[6-(cyclopentylmethoxy)pyridin-2-yl]-3-[(2,5-dichlorophenyl)sulfanyl]-6-(thiophen-3-yl)piperidine-2,4-dione] | -TΔS (LDHA [1]): 4.06 kcal/mol; pKd (LDHA [1]): 6.17; N (stoichiometry) (LDHA [1]): 0.548; ΔH (LDHA [1]): -4.35 kcal/mol
4 | < 4.00 | < 4.00 | CC(=O)OC1=C(Sc2ccc(F)cc2Cl)C(=O)NC(c2ccsc2)(c2cccc(OCC3CCCC3)n2)C1 (centres unmarked) [Example 13, 5-((2-chloro-4-fluorophenyl)thio)-6′-(cyclopentylmethoxy)-6-oxo-2-(thiophen-3-yl)-1,2,3,6-tetrahydro-[2,2′-bipyridin]-4-yl acetate] | –
5 | 4.00 to 4.30 | 4.00 to 4.30 | CCCOC(=O)OC1=C(Sc2ccc(F)cc2Cl)C(=O)NC(c2ccc(N3CCOCC3)cc2)(c2ccsc2)C1 (centres unmarked) [Example 14, 5-((2-chloro-4-fluorophenyl)thio)-2-(4-morpholinophenyl)-6-oxo-2-(thiophen-3-yl)-1,2,3,6-tetrahydropyridin-4-yl propyl carbonate] | –
6 | 4.00 to 4.30 | < 4.00 | CCOC(=O)OC1=C(Sc2cccc(Cl)c2Cl)C(=O)NC(c2ccc(N3CCOCC3)cc2)(c2ccsc2)C1 (centres unmarked) [Example 15, 5-((2,3-dichlorophcnyl)thio)-2-(4-morpholinophenyI)-6-oxo-2-(thiophcn-3-yl)-1,2,3,6-tetrahydropyridin-4-yl ethyl carbonate] | –
7 | 5.00 to 6.30 | 5.00 to 6.30 | O=C1CC(c2ccsc2)(c2ccccn2)OC(=O)C1Sc1ccccc1Cl (centres unmarked) [Example 20, 3-((2-chlorophenyl)thio)-6-(pyridin-2-yl)-6-(thiophen-3-yl)dihydro-2H-pyran-2,4(3H)-dione] | –
8 | < 4.00 | < 4.00 | COCCOC(=O)OC1=C(Sc2ccc(Cl)cc2Cl)C(=O)NC(c2ccsc2)(c2cccc(OCC3CCCC3)n2)C1 (centres unmarked) [Example 22, 6′-(cyclopentylmethoxy)-5-((2,4-dichlorophenyl)thio)-6-oxo-2-(thiophen-3-yl)-1,2,3,6-tetrahydro-[2,2′-bipyridin]-4-yl (2-methoxyethyl) carbonate] | –
9 | 5.00 to 6.30 | 5.00 to 6.30 | O=C1CC(c2cnc(N3CCOCC3)nc2)(c2ccsc2)OC(=O)C1Sc1ccccc1Cl (centres unmarked) [Example 23, 3-((2-chlorophenyl)thio)-6-(2-morpholinopyrimidin-5-yl)-6-(thiophen-3-yl)dihydro-2H-pyran-2,4(3H)-dione] | –
10 | – | – | O=C1CC(c2ccc(N3CCOCC3)cc2)(c2ccsc2)NC(=O)C1Sc1ccccc1Cl (centres unmarked) [Example 24, 3-((2-chlorophenyl)thio)-6-(4-morpholinophenyl)-6-(thiophen-3-yl)piperidine-2,4-dione] | time of continuous LDHA inhibition until cell death occurred [3]: ≥ 2 days
11 | 4.00 to 4.30 | < 4.00 | O=C1CC(c2ccc(N3CCOCC3)cc2)(c2ccsc2)NC(=O)C1Sc1ccc(Cl)cc1Cl (centres unmarked) [Example 29, 3-((2,4-dichlorophenyl)thio)-6-(4-morpholinophenyl)-6-(thiophen-3-yl)piperidine-2,4-dione] | –
12 | < 4.00 | < 4.00 | COCCOC(=O)OC1=C(Sc2ccc(Cl)cc2Cl)C(=O)NC(c2ccc(N3CCOCC3)cc2)(c2ccsc2)C1 (centres unmarked) [Example 30, 5-((2,4-dichlorophenyl)thio)-2-(4-morpholinophenyl)-6-oxo-2-(thiophen-3-yl)-1,2,3,6-tetrahydropyridin-4-yl (2-methoxyethyl) carbonate] | –
13 | < 4.00 | < 4.00 | CC(C)COC(=O)OC1=C(Sc2ccc(F)cc2Cl)C(=O)NC(c2ccc(N3CCOCC3)cc2)(c2ccsc2)C1 (centres unmarked) [Example 32, 5-((2-chloro-4-fluorophenyl)thio)-2-(4-morpholinophenyl)-6-oxo-2-(thiophen-3-yl)-1,2,3,6-tetrahydropyridin-4-yl iso-butyl carbonate] | –
14 | 5.00 to 6.30 | < 4.00 | COCCOC(=O)OC1=C(Sc2ccc(F)cc2Cl)C(=O)NC(c2ccc(N3CCOCC3)cc2)(c2ccsc2)C1 (centres unmarked) [Example 33, 5-((2-chloro-4-fluorophenyl)thio)-2-(4-morpholinophenyl)-6-oxo-2-(thiophen-3-yl)-1,2,3,6-tetrahydropyridin-4-yl (2-methoxyethyl) carbonate] | –
15 | – | – | NC(=O)C(=O)O [Oxamate] | concentration range that inhibits LDH enzyme activity (LDH): mM range

Source: patent US11142520B2, “LDHA activity inhibitors” (ARCTIC PHARMA AS, priority 2017, dated 2021)
